The values below come from patent US12447153B2, “HER2 mutation inhibitors” (Array BioPharma Inc., priority 2021, dated 2025).

Some results are limits rather than exact numbers.

For one experiment, the target named is ErbB2 WT (Homo sapiens (Human), UniProt P04626). The experiment in a line: ErbB Enzyme Assay (HTRF KinEASE-TK), Assay 2. It counts as biochemical. For orientation: In TR-FRET formats the signal depends on donor and acceptor labels being close together.
A further experiment has as its target EGFR (Homo sapiens (Human), UniProt P00533). The experiment is described as follows: ErbB Enzyme Assay (HTRF KinEASE-TK), Assay 3. It counts as biochemical.
Experiment [1] deals with ErbB2 with Exon 20 YVMA insertion (HER2-YVMA) (Homo sapiens (Human), UniProt P04626, INS775YVMA). The experiment in a line: Cellular Phosphorylation Assay, Assay 4 (constitutive ErbB2 phosphorylation, NIH 3T3 cells). Format: cell-based.
Sequence of ErbB2 with Exon 20 YVMA insertion (HER2-YVMA) (P04626 other isoform, or with tags, fused parts or gaps ins YVMA behind 775): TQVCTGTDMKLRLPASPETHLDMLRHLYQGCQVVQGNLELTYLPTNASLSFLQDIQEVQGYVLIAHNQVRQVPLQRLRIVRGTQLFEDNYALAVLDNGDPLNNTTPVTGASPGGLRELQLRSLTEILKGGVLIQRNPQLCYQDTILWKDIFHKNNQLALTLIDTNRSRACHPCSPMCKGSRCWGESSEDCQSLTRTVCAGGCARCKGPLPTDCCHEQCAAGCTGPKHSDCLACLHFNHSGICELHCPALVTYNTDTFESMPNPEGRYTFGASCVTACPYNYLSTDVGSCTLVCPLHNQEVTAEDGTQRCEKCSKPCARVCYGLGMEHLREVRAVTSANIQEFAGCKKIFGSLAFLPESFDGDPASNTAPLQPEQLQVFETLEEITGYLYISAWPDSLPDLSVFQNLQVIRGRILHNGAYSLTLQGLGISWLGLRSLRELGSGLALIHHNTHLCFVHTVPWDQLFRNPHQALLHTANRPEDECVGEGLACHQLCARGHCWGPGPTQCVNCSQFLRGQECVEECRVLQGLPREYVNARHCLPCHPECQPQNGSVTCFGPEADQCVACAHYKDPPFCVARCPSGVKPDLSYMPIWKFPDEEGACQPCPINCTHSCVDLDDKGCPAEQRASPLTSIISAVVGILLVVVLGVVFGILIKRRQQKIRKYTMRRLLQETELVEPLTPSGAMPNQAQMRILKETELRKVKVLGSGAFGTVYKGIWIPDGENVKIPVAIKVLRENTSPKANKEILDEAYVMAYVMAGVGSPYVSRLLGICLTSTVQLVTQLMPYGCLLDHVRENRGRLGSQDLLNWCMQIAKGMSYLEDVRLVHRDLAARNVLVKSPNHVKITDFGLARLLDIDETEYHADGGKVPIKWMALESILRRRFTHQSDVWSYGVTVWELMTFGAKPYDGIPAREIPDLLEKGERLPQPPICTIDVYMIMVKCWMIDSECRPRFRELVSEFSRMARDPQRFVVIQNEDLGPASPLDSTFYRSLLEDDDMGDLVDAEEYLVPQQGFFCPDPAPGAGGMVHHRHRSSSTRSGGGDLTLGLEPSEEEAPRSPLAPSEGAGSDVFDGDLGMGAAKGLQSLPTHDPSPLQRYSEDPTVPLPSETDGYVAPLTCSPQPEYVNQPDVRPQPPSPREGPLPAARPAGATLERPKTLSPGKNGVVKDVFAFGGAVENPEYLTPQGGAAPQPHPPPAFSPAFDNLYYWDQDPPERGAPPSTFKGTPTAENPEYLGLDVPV
The target in a further experiment is EGFR wild type (EGFR WT) (Homo sapiens (Human), UniProt P00533). The experiment in a line: Cellular Phosphorylation Assay, Assay 5 (EGF-stimulated EGFR phosphorylation, NIH 3T3 cells). It counts as cell-based.
Sequence of EGFR wild type (EGFR WT) (P00533 25-1210): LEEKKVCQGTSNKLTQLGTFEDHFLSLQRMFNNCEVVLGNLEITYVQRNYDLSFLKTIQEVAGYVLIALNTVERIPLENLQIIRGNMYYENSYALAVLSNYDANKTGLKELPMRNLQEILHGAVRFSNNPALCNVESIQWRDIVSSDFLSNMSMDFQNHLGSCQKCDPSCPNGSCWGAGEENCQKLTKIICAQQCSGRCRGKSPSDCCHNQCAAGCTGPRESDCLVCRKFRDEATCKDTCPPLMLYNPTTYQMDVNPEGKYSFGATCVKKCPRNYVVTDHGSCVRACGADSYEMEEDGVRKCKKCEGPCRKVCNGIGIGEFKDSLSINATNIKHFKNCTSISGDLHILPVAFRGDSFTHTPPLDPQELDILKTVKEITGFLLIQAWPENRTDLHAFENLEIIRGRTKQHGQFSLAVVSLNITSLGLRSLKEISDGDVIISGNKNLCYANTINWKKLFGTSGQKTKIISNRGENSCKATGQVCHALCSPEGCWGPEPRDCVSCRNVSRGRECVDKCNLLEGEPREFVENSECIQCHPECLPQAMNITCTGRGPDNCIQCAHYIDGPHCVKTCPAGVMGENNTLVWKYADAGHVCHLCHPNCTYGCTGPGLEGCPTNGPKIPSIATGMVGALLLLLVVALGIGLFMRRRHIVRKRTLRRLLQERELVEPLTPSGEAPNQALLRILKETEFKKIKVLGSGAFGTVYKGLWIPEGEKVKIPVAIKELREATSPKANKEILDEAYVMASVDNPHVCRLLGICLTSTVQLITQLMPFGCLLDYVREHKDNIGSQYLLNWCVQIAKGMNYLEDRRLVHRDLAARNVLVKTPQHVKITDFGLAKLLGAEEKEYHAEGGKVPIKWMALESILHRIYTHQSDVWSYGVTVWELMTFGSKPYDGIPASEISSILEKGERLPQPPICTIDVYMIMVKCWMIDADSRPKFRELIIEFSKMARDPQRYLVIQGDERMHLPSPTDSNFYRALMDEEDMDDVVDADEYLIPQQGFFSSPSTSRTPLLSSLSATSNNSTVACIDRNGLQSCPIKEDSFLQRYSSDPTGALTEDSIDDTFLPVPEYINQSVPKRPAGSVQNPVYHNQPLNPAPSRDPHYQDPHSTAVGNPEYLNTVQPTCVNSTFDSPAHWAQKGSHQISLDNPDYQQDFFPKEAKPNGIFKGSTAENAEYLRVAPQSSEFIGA
Where [2] appears, read: cellular ErbB2 YVMA phosphorylation.
The mark [3] stands for this setting: cellular EGFR WT phosphorylation, EGF-stimulated.
Where [4] appears, read: EGF-stimulated EGFR WT phosphorylation.

Sequence of ErbB2 WT (P04626 23-1255): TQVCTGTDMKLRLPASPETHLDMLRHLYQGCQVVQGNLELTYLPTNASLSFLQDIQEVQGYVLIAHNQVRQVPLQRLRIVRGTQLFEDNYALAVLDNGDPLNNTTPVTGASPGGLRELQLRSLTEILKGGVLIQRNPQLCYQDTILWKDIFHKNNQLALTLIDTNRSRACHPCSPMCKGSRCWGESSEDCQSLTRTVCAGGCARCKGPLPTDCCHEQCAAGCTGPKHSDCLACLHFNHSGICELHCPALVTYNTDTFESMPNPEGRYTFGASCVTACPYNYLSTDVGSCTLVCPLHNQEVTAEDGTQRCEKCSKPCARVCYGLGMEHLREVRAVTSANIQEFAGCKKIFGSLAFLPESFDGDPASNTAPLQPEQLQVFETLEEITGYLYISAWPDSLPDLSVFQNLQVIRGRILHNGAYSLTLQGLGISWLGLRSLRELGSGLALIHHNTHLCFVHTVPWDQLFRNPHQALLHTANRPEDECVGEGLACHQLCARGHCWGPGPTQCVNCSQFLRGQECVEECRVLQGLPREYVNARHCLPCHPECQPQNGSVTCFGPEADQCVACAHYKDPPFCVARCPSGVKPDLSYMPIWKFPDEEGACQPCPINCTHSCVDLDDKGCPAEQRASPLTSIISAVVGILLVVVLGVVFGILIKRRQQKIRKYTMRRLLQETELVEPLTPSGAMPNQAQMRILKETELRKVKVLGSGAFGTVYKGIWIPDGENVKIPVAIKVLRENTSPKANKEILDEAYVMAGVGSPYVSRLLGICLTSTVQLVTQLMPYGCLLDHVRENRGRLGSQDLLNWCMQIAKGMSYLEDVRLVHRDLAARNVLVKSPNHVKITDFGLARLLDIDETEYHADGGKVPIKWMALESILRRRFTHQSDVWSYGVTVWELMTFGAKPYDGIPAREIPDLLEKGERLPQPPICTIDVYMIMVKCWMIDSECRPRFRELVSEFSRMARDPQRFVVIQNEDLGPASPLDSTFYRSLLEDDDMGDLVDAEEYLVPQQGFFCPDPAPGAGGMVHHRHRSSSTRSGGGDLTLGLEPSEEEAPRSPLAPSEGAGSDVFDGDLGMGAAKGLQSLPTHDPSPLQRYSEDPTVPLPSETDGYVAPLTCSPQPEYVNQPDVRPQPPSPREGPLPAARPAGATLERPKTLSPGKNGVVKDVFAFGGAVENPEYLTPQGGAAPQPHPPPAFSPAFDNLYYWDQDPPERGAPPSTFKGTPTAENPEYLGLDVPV
Sequence of EGFR (P00533 25-1210): as the sequence (P00533 25-1210) above

The IC50 is the concentration that gives 50% inhibition. Read a low IC50 as greater potency in that assay. Regarding `C=CC(=O)N1[C@@H](C)CN(c2ccc3ncnc(Nc4ccc(Oc5ccc6c(c5)ncn6C)c(C)c4F)c3n2)C[C@@H]1C` [Example 256], the 50% inhibitory concentration (IC50) against ErbB2 WT (ErbB2 WT enzyme assay) was 57.2 nM; on EGFR (EGFR enzyme assay) it was at least 10000 nM; in experiment [1] (setting [2]), 66.9 nM; against EGFR wild type (EGFR WT) (setting [3]) it was at least 5000 nM.
For the molecule `C=CC(=O)N1CCC[C@@H](c2ccc3ncnc(Nc4cc(C)c(Oc5ccc6c(c5)ncn6C)cc4F)c3n2)CC1` (racemic) [Example 135, rac-(R)-1-(4-(4-((2-fluoro-5-methyl-4-((1-methyl-1H-benzo[d]imidazol-5-yl)oxy)phenyl)amino)pyrido[3,2-d]pyrimidin-6-yl)azepan-1-yl)prop-2-en-1-one], the IC50 against ErbB2 WT (ErbB2 WT enzyme) is 121 nM; on EGFR (EGFR enzyme), at least 10000 nM; in experiment [1] (ErbB2 YVMA phosphorylation) it was 44.5 nM; against EGFR wild type (EGFR WT) (setting [4]), at least 5000 nM.
For `C=CC(=O)N1CC[C@@H]2C[C@H]1CN2c1ccc2ncnc(Nc3ccc(Oc4ccc5c(c4)ncn5C)c(C)c3F)c2n1` [Example 29, 1-((1 S,5R)-6-(4-((2-fluoro-3-methyl-4-((1-methyl-1H-benzo[d]imidazol-5-yl)oxy)phenyl)amino)pyrido[3,2-d]pyrimidin-6-yl)-2,6-diazabicyclo[3.2.1]octan-2-yl)prop-2-en-1-one], the half-inhibitory concentration (IC50) against ErbB2 WT (ErbB2 WT enzyme) was 36.5 nM; against EGFR (EGFR enzyme), 311 nM; in experiment [1] (ErbB2 YVMA phosphorylation), 5.8 nM; against EGFR wild type (EGFR WT) (setting [4]), 118 nM.
In the same order, the values of `C=CC(=O)N1CC(c2ccc3ncnc(Nc4ccc(Oc5ccc6c(c5)ncn6C)c(C)c4F)c3n2)CCC12CC2` (stereo not drawn) [Example 197, 1-(6-(4-((2-fluoro-3-methyl-4-((1-methyl-1H-benzo[d]imidazol-5-yl)oxy)phenyl)amino)pyrido[3,2-d]pyrimidin-6-yl)-4-azaspiro[2.5]octan-4-yl)prop-2-en-1-one] are 21.1 nM, 650 nM, 35.2 nM and 853 nM.
`Cc1c(Oc2ccn3ncnc3c2)ccc(Nc2ncnc3ccc(N4C[C@@H]5CCN(C(=O)C67CC6C7)[C@@H]5C4)nc23)c1F` (stereo partly drawn) [Example 27, ((3aS,6aS)-5-(4-((4-([1,2,4]triazolo[1,5-a]pyridin-7-yloxy)-2-fluoro-3-methylphenyl)amino)pyrido[3,2-d]pyrimidin-6-yl)hexahydropyrrolo[3,4-b]pyrrol-1(2H)-yl)(bicyclo[1.1.0]butan-1-yl)methanone]: the IC50 is 486 nM at ErbB2 WT (ErbB2 WT enzyme), at least 10000 nM at EGFR (EGFR enzyme), 381 nM in experiment [1] (ErbB2 YVMA phosphorylation) and at least 5000 nM against EGFR wild type (EGFR WT) (setting [4]).
For `C=CC(=O)N1CC2CCC(C1)N2c1ccc2ncnc(Nc3ccc(Oc4ccn5ncnc5c4)c(Cl)c3F)c2n1` [Example 445], the IC50 against ErbB2 WT (ErbB2 WT enzyme assay) was determined as 4.7 nM; on EGFR (EGFR enzyme assay), 33.6 nM; in experiment [1] (setting [2]) it was 5.7 nM; at EGFR wild type (EGFR WT) (setting [3]), 60.1 nM.
With `C=CC(=O)N1C[C@H]2CC[C@@H]1C[C@H]2c1ccc2ncnc(Nc3ccc(Oc4cnc5c(c4)ncn5C)c(C)c3F)c2n1` [Example 423], the IC50 was 125 nM on ErbB2 WT (ErbB2 WT enzyme assay), 2550 nM at EGFR (EGFR enzyme assay), 70.8 nM in experiment [1] (setting [2]) and at least 5000 nM at EGFR wild type (EGFR WT) (setting [3]).
Turning to `C=CC(=O)N1CCC(c2nc3c(Nc4ccc(Oc5ccn6ncnc6c5)c(C)c4F)ncnc3cc2OC)CC1` [Example 155, 1-(4-(4-((4-([1,2,4]triazolo[1,5-a]pyridin-7-yloxy)-2-fluoro-3-methylphenyl)amino)-7-methoxypyrido[3,2-d]pyrimidin-6-yl)piperidin-1-yl)prop-2-en-1-one], the IC50 against ErbB2 WT (ErbB2 WT enzyme) is 9720 nM; against EGFR (EGFR enzyme) it was at least 10000 nM; in experiment [1] (ErbB2 YVMA phosphorylation) it was 3950 nM; on EGFR wild type (EGFR WT) (setting [4]), at least 5000 nM.
Taken in the same sequence, the figures for `C=CC(=O)N1CCN(c2ccc3ncnc(Nc4ccc(Oc5ccc6c(c5)ncn6C)c(C)c4F)c3n2)CCC1(C)C` [Example 68, 1-(4-(4-((2-fluoro-3-methyl-4-((1-methyl-1H-benzo[d]imidazol-5-yl)oxy)phenyl)amino)pyrido[3,2-d]pyrimidin-6-yl)-7,7-dimethyl-1,4-diazepan-1-yl)prop-2-en-1-one] were 664 nM, at least 10000 nM, 73.8 nM and at least 5000 nM.
For the molecule `C=CC(=O)N1CCN(c2ccc3ncnc(Nc4ccc(Oc5ccn6ncnc6c5)c(C)c4F)c3n2)CC12CCC2` [Example 308], the IC50 stood at 15.5 nM against ErbB2 WT (ErbB2 WT enzyme assay), 432 nM against EGFR (EGFR enzyme assay), 8.4 nM in experiment [1] (setting [2]) and 110 nM at EGFR wild type (EGFR WT) (setting [3]).
In the same order, the values of `C=CC(=O)N1CCN(c2ccc3ncnc(Nc4cc(C)c(Oc5ccn6ncnc6c5)cc4F)c3n2)C[C@H]1C(C)(C)C` [Example 310] are 10000 nM, at least 10000 nM, 33.4 nM and at least 5000 nM.
On to `C=CC(=O)N1CC[C@@H]2[C@H](c3ccc4ncnc(Nc5ccc(Oc6ccc7c(c6)ncn7C)c(C)c5F)c4n3)CC[C@@H]21` (racemic) [Example 142, rac-1-((3aR,4R,6aS)-4-(4-((2-fluoro-3-methyl-4-((1-methyl-1H-benzo[d]imidazol-5-yl)oxy)phenyl)amino)pyrido[3,2-d]pyrimidin-6-yl)hexahydrocyclopenta[b]pyrrol-1(2H)-yl)prop-2-en-1-one], for which the 50% inhibitory concentration (IC50) at ErbB2 WT (ErbB2 WT enzyme) was 49.9 nM; against EGFR (EGFR enzyme) it was at least 10000 nM; in experiment [1] (ErbB2 YVMA phosphorylation) it was 79.5 nM; on EGFR wild type (EGFR WT) (setting [4]), at least 5000 nM.
`C=CC(=O)N1CCN(c2ccc3ncnc(Nc4cc(Cl)c(Oc5ccc6c(c5)ncn6C)cc4F)c3n2)CC1(C)C` [Example 76, 1-(4-(4-((5-chloro-2-fluoro-4-((1-methyl-1H-benzo[d]imidazol-5-yl)oxy)phenyl)amino)pyrido[3,2-d]pyrimidin-6-yl)-2,2-dimethylpiperazin-1-yl)prop-2-en-1-one]: the IC50 is 33.4 nM against ErbB2 WT (ErbB2 WT enzyme), at least 10000 nM at EGFR (EGFR enzyme), 17.1 nM in experiment [1] (ErbB2 YVMA phosphorylation) and at least 5000 nM against EGFR wild type (EGFR WT) (setting [4]).
Regarding `C=CC(=O)N1CCN(c2ccc3ncnc(Nc4ccc(Oc5ccn6ncnc6c5)c(C)c4F)c3n2)C[C@@H]1C1CCC1` (racemic) [Example 305], the IC50 on ErbB2 WT (ErbB2 WT enzyme assay) is 127 nM; against EGFR (EGFR enzyme assay), 7970 nM; in experiment [1] (setting [2]), 66.1 nM; against EGFR wild type (EGFR WT) (setting [3]), at least 5000 nM.
For the molecule `C=CC(=O)N1C[C@H]2CC[C@@H]1CN2c1ccc2ncnc(Nc3cc(C)c(Oc4cnc5c(c4)ncn5C)cc3F)c2n1` [Example 367], the half-inhibitory concentration (IC50) is 2330 nM against ErbB2 WT (ErbB2 WT enzyme assay), at least 10000 nM against EGFR (EGFR enzyme assay), 70.4 nM in experiment [1] (setting [2]) and at least 5000 nM at EGFR wild type (EGFR WT) (setting [3]).
Consider `C=CC(=O)N1CCCCC(c2ccc3ncnc(Nc4ccc(Oc5ccc6c(c5)ncn6C)c(C)c4)c3n2)C1` (stereo not drawn) [Example 126, 1-(3-(4-((3-methyl-4-((1-methyl-1H-benzo[d]imidazol-5-yl)oxy)phenyl)amino)pyrido[3,2-d]pyrimidin-6-yl)azepan-1-yl)prop-2-en-1-one], for which the IC50 against ErbB2 WT (ErbB2 WT enzyme) worked out at 12.3 nM; against EGFR (EGFR enzyme), 1260 nM; in experiment [1] (ErbB2 YVMA phosphorylation), 12.2 nM; at EGFR wild type (EGFR WT) (setting [4]), 1770 nM.
As for `C=CC(=O)N1CCCCC(c2ccc3ncnc(Nc4ccc(Oc5ccn6ncnc6c5)c(C)c4F)c3n2)C1` (stereo not drawn) [Example 377], the IC50 at ErbB2 WT (ErbB2 WT enzyme assay) worked out at 13 nM; against EGFR (EGFR enzyme assay), 187 nM; in experiment [1] (setting [2]) it was 16.3 nM; on EGFR wild type (EGFR WT) (setting [3]), 426 nM.
Take `C=CC(=O)N1CCN(c2ccc3ncnc(Nc4cc(C)c(Oc5ccn6ncnc6c5)cc4F)c3n2)C[C@@H]1C1CC1` [Example 284]: the IC50 at ErbB2 WT (ErbB2 WT enzyme assay) is 24.9 nM; against EGFR (EGFR enzyme assay) it was at least 10000 nM; in experiment [1] (setting [2]) it was 67.9 nM; on EGFR wild type (EGFR WT) (setting [3]), at least 5000 nM.
In the same order, the values of `C=CC(=O)N1[C@@H](C)CN(c2ccc3ncnc(Nc4cc(Cl)c(Oc5ccc6c(c5)ncn6C)cc4F)c3n2)C[C@@H]1C` [Example 258] are 10000 nM, at least 10000 nM, 99.9 nM and at least 5000 nM.
On to `C=CC(=O)N1CCN(c2ccc3ncnc(Nc4ccc(Oc5ccn6ncnc6c5)c(C)c4F)c3n2)C[C@@H]1C` [Example 88, (S)-1-(4-(4-((4-([1,2,4]triazolo[1,5-a]pyridin-7-yloxy)-2-fluoro-3-methylphenyl)amino)pyrido[3,2-d]pyrimidin-6-yl)-2-methylpiperazin-1-yl)prop-2-en-1-one], for which the IC50 against ErbB2 WT (ErbB2 WT enzyme) amounted to 81.3 nM; at EGFR (EGFR enzyme), 2950 nM; in experiment [1] (ErbB2 YVMA phosphorylation), 17.8 nM; against EGFR wild type (EGFR WT) (setting [4]), 1850 nM.
Turning to `C=CC(=O)N1[C@H]2CC[C@@H]1[C@H](c1ccc3ncnc(Nc4ccc(Oc5ccn6ncnc6c5)c(C)c4F)c3n1)CC2` [Example 429], the IC50 on ErbB2 WT (ErbB2 WT enzyme assay) stood at 28.4 nM; against EGFR (EGFR enzyme assay), 520 nM; in experiment [1] (setting [2]), 13.8 nM; against EGFR wild type (EGFR WT) (setting [3]), 447 nM.
`C=CC(=O)N1CC[C@H]2C[C@H](c3ccc4ncnc(Nc5ccc(Oc6ccn7ncnc7c6)c(C)c5F)c4n3)C[C@H]21` [Example 382]: the IC50 on ErbB2 WT (ErbB2 WT enzyme assay) stood at 15 nM; on EGFR (EGFR enzyme assay), 584 nM; in experiment [1] (setting [2]), 21 nM; against EGFR wild type (EGFR WT) (setting [3]), 339 nM.
In the same order, the values of `C=CC(=O)N1CCN(c2ccc3ncnc(Nc4ccc(Oc5ccc6c(c5)ncn6C)c(C)c4F)c3n2)C[C@H]1C(C)C` [Example 253] are 162 nM, at least 10000 nM, 31 nM and at least 5000 nM.
`C=CC(=O)N1CCN(c2ccc3ncnc(Nc4ccc(Oc5ccn6ncnc6c5)c(C)c4F)c3n2)C[C@H]1C` [Example 89, (R)-1-(4-(4-((4-([1,2,4]triazolo[1,5-a]pyridin-7-yloxy)-2-fluoro-3-methylphenyl)amino)pyrido[3,2-d]pyrimidin-6-yl)-2-methylpiperazin-1-yl)prop-2-en-1-one]: the concentration for half-maximal inhibition (IC50) on ErbB2 WT (ErbB2 WT enzyme) was 76.5 nM; against EGFR (EGFR enzyme), 3630 nM; in experiment [1] (ErbB2 YVMA phosphorylation), 10.9 nM; at EGFR wild type (EGFR WT) (setting [4]), 449 nM.
